Test results: ChEMBL document CHEMBL4270672, “Synthesis and Biological Evaluation of Fused Tricyclic Heterocycle Piperazine (Piperidine) Derivatives As Potential Multireceptor Atypical Antipsychotics” (J Med Chem, 2018)
The source made the active and inactive calls. The calls are words filed in the database; no cut-off is given here.

Key:
D(1A) dopamine receptor [1] = target: T1, D(1A) dopamine receptor (Homo sapiens, UniProt P21728); assay: Antagonist activity at human dopamine D1 receptor expressed in HEK293T cells assessed as inhibition of dopamine-induced cAMP accumulation at 10 uM preincubated for 15 mins followed by dopamine induction and measured after 30 mins by HTRF assay; format: functional, cell-based
Rattus norvegicus [2] = assay: Cognitive enhancing effect in Sprague-Dawley rat assessed as increase in total exploration time for novel objects in retention trial at 0.03 mg/kg, po administered 1 hr prior to acquisition trial measured 24 hrs post acquisition trial for 5 mins by novel object recognition test; format: functional, organism-based
[3] = Therapeutic index, ratio of ED50 for catalepsy in Kunming mouse to ED50 for apomorphine-induced climbing in Kunming mouse; format: toxicity, organism-based; settings: in vivo, read-out: Ratio ED50
Rattus norvegicus [4] = assay: AUC (0 to infinity) in Sprague-Dawley rat at 1 mg/kg, iv by LC-MS/MS analysis; format: ADME, organism-based; parameters: dose 1 mg/kg, route intravenous, time infinity; settings: in vivo
[5] = target: T2, 5-hydroxytryptamine receptor 2A (Homo sapiens, UniProt P28223)
Mus musculus [6] = settings: Kunming
Description: Antipsychotic activity in po dosed Kunming mouse assessed as reduction in MK-801-induced hyperactivity pretreated for 60 mins followed by MK-801 challenge measured for 90 mins

[7] = Half life in Sprague-Dawley rat at 1 mg/kg, iv by LC-MS/MS analysis; format: ADME, organism-based; settings: in vivo
[8] = target: T3, 5-hydroxytryptamine receptor 6 (Homo sapiens, UniProt P50406); assay: Agonist activity at serotonin 5-HT6 receptor (unknown origin) expressed in HEK293 cells assessed as induction of calcium flux at 10 uM after 60 mins by calcium 4-dye based FLIPR assay relative to control; format: functional, cell-based
[9] = target: T3, 5-hydroxytryptamine receptor 6
[10] = target: Muscarinic acetylcholine receptor M1 (Homo sapiens, UniProt P11229); assay: Displacement of [3H]-QNB from M1 receptor (unknown origin) in cell membrane homogenates after 30 mins by liquid scintillation counting
[11] = target: Adrenergic receptor alpha-2 (Rattus norvegicus, UniProt P22086+P19328+P22909); assay: Displacement of [3H]-rauwolscine from adrenergic alpha2 receptor in rat cerebral cotex homogenates after 60 mins by liquid scintillation counting
D(3) dopamine receptor = D(3) dopamine receptor (Homo sapiens, UniProt P35462)
D(1A) dopamine receptor [12] = target: T1, D(1A) dopamine receptor; assay: Antagonist activity at human dopamine D1 receptor expressed in HEK293T cells assessed as inhibition of dopamine-induced cAMP accumulation preincubated for 15 mins followed by dopamine induction and measured after 30 mins by HTRF assay; format: functional, cell-based
[13] = target: T4, Adrenergic receptor alpha-1 (Rattus norvegicus, UniProt P15823+P23944+P43140)
T4 sequence (P15823 whole entry): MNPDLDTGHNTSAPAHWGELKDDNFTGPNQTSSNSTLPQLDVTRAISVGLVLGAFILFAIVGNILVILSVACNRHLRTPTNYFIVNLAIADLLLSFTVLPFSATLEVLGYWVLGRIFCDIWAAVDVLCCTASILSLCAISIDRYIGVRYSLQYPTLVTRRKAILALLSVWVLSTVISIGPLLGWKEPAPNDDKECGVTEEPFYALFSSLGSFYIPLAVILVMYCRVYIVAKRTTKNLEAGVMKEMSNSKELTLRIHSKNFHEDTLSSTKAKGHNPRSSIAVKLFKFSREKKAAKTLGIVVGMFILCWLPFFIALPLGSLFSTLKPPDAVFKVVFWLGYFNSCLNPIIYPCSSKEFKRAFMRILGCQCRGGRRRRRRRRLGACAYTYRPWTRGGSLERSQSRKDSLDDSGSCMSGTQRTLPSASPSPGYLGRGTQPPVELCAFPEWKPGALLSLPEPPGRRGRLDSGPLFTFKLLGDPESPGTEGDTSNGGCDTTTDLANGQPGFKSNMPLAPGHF
T4 sequence (P23944 whole entry): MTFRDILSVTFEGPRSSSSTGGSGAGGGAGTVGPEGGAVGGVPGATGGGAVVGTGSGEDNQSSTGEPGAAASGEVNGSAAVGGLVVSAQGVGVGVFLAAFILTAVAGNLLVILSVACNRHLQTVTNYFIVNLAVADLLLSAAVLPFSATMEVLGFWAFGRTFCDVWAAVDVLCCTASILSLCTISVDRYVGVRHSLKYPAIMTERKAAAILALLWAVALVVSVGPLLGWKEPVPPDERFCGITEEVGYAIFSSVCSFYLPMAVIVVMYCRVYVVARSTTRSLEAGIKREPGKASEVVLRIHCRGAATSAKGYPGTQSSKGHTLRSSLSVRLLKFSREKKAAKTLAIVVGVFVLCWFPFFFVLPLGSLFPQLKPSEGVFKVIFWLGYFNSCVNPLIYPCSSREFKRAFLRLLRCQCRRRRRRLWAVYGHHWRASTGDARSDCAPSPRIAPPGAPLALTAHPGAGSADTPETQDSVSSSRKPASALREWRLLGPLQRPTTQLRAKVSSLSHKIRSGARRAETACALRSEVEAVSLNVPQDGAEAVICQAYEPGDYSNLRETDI
T4 sequence (P43140 whole entry): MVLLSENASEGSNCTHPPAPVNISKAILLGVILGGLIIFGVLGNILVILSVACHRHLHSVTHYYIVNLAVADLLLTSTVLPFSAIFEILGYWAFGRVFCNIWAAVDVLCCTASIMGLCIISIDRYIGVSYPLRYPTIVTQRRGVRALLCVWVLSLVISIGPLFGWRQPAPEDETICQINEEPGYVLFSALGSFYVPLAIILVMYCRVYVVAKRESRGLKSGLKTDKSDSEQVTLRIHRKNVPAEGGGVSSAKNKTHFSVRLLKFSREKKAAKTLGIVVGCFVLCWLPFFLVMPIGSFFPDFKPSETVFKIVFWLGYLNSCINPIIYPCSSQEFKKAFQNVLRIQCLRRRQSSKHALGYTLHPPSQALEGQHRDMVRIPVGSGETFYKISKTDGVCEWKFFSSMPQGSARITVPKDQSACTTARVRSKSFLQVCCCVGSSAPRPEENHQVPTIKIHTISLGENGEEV
Description: Displacement of [3H]-prazosin from alpha-1 adrenergic receptor in rat cerebral cortex homogenates incubated for 60 mins by liquid scintillation counting

Histamine H1 receptor = Histamine H1 receptor (Cavia porcellus, UniProt P31389)
Description: Displacement of [3H]-mepyramine from histamine H1 receptor in guinea pig cerebellum homogenates incubated for 60 mins by liquid scintillation counting

Mus musculus [14] = assay: Induction of catalepsy in po dosed Kunming mouse measured after 60 secs; format: organism-based; settings: in vivo, 1 min
Rattus norvegicus [15] = assay: Cognitive enhancing effect in Sprague-Dawley rat assessed as increase in novelty discrimination index in retention trial at 0.3 mg/kg, po administered 1 hr prior to acquisition trial measured 24 hrs post acquisition trial for 5 mins by novel object recognition test; format: functional, organism-based
[16] = target: T2, 5-hydroxytryptamine receptor 2A; assay: Antagonist activity at serotonin 5-HT2A receptor (unknown origin) expressed in HEK293 cells assessed as inhibition of serotonin-induced calcium flux at 10 uM after 15 mins by calcium 4-dye based FLIPR assay relative to control; format: functional, cell-based

T2 sequence (P28223 whole entry): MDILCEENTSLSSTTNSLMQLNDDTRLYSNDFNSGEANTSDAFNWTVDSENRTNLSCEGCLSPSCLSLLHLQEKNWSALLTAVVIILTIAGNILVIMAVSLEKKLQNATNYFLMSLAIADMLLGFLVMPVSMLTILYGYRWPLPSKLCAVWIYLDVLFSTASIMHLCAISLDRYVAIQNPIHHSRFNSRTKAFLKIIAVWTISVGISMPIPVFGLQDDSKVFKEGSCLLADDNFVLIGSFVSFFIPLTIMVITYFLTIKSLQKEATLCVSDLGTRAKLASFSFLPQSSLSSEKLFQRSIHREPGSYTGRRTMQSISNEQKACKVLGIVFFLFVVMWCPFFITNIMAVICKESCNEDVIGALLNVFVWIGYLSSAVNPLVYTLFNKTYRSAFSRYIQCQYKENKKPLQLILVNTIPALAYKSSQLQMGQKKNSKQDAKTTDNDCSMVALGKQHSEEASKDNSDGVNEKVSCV
T1 sequence (P21728 whole entry): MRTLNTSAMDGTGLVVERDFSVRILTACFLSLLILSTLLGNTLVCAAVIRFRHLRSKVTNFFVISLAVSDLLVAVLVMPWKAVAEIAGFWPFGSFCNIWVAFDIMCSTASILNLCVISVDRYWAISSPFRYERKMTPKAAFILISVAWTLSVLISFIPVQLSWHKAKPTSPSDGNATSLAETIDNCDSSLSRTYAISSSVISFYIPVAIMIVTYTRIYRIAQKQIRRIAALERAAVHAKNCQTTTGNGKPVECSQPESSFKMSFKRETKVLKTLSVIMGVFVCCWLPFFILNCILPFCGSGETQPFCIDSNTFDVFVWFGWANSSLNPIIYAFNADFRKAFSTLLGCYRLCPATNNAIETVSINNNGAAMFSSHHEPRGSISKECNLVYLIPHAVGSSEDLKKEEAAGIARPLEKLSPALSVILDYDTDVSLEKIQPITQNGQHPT
T3 sequence (P50406 whole entry): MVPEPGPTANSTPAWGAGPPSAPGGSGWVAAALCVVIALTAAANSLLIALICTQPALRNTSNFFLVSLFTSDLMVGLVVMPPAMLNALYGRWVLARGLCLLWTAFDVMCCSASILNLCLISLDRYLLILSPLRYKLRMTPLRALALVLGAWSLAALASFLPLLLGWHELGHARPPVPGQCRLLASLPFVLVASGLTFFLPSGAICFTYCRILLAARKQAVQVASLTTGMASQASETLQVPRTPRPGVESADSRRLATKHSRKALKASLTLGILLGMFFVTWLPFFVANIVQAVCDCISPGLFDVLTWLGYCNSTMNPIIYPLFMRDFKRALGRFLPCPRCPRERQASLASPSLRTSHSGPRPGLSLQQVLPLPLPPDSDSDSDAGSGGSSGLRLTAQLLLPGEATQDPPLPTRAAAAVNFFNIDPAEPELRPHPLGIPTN
Chain of Histamine H1 receptor (P31389 whole entry): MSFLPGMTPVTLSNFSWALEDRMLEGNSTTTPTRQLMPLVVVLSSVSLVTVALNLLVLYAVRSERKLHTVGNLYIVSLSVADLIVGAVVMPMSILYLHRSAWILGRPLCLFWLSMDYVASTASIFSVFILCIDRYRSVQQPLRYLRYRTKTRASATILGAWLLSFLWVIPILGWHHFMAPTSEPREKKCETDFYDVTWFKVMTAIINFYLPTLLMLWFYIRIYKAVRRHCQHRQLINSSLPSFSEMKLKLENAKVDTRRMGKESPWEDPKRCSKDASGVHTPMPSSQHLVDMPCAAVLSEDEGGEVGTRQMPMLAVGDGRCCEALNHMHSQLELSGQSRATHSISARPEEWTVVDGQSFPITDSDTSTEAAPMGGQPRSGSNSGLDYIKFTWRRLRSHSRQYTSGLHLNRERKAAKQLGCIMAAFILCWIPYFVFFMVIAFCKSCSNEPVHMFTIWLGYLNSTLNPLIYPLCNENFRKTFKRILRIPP
Chain of D(3) dopamine receptor (P35462 whole entry): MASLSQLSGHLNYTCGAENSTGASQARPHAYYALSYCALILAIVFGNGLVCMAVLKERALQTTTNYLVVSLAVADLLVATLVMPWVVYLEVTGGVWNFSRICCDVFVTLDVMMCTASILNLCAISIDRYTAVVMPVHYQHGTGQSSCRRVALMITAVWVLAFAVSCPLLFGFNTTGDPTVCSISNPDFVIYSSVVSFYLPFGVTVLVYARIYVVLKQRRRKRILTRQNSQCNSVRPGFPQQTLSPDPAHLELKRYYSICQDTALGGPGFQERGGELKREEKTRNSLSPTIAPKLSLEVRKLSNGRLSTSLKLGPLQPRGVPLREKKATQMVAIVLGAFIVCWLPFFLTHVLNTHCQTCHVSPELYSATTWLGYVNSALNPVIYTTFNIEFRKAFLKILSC
Chain of Muscarinic acetylcholine receptor M1 (P11229 whole entry): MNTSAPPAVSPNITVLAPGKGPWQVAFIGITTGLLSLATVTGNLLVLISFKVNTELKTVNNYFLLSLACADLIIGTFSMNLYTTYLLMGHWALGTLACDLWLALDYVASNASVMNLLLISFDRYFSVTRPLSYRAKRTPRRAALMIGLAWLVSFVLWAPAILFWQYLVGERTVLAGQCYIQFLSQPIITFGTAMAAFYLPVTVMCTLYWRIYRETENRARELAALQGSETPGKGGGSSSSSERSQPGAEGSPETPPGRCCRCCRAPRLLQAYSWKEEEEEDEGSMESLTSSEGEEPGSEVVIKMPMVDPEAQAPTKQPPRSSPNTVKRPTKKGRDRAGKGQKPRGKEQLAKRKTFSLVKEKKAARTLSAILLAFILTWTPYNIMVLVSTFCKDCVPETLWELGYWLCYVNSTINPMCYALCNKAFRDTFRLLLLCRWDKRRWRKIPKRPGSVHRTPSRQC

## O=C(CCCCN1CCC(c2noc3cc(F)ccc23)CC1)c1cc2c3c(c1)CCN3C(=O)CC2
D(1A) dopamine receptor [1]
  inhibition: > 90%
Rattus norvegicus [2]
  Activity: inactive
[3]
  selectivity ratio: 129
Rattus norvegicus [4]
  AUC: 3151.2 ng·h/mL
[5]
  IC50: 257 nM
Mus musculus [6]
  Activity: Dose-dependent effect
[7]
  half-life: 2.15 h
[8]
  Activity: 6%
[9]
  IC50: 178 nM
[10]
  Ki: > 1000 nM
[11]
  Ki: > 1000 nM
D(3) dopamine receptor
  IC50: 25.6 nM
D(1A) dopamine receptor [12]
  IC50: 366 nM
[13]
  Ki: 431 nM
Histamine H1 receptor
  Ki: 630 nM
Mus musculus [14]
  ED50: 78.62 mg/kg
Rattus norvegicus [15]
  Activity: Active
[16]
  inhibition: 100%
